Data set [1] concerns the target T1, CYP1A2 (Homo sapiens, UniProt P05177).
T1 construct: tissue Corning 452117; host or cells: human liver microsomes
T1 sequence (P05177 1-516): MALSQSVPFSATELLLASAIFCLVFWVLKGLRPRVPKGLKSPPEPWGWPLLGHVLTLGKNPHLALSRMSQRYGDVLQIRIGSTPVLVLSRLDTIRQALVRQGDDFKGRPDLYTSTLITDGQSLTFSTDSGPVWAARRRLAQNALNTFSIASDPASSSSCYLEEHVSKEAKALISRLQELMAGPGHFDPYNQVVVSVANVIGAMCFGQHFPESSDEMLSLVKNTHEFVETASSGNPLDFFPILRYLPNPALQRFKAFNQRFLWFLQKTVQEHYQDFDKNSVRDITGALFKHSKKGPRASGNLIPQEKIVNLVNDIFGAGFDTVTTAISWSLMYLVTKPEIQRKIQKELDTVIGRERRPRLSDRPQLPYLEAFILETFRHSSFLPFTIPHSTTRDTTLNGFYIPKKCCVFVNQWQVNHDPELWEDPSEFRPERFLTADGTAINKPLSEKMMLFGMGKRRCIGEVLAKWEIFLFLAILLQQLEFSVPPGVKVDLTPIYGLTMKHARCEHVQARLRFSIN
Briefly: CYP450 inhibition assay in human liver microsomes, CYP1A2. It counts as in vitro ADME. As for the experimental part:
(§1) To evaluate the reliability and reproducibility of the CYP450 inhibition assay, we measured the inhibitory effects of selected positive control inhibitors of each CYP450 enzyme in human liver microsomes (HLM, Table 1, Figure 2). The potency of inhibition was estimated by observing the alteration in concentration of metabolites of CYP450 substrates (Table 1).
(§2) Reagents preparation. […] The stock solution of PDQ (10 mM) was prepared with methanol and further diluted to the range of 3 µM to 3 mM with methanol to ensure that the solvent of different PDQ samples contained the same amount (1%) of methanol.
(§3) The stock solutions of the positive control inhibitors and the probe substrates of CYP450 enzymes were prepared in methanol.
(§4) CYP450 inhibition assay. […] The assay was conducted in polypropylene 96-well plates (2.2 mL/well, Apricot Designs Inc., Covina, CA, USA).
The total volume of the reaction is 200 μL. The HLM mixtures (102 μL) containing individual probe substrates (Table 3), KH2PO4 buffer (100 mM, pH 7.4), and either PDQ or the positive control inhibitors (Table 3) were incubated for 10 min at 37 °C in a shaking incubator. Reactions were initiated by adding 98 μL NADPH (final concentration is 1.3 mM NADPH, 3 mM MgCl2 in 100 mM KH2PO4 buffer). The HLM reaction mixtures were shaken at 37 °C for various times (Table 4). The reaction time of CYP3A4 (midazolam), CYP2C19 and CYP2D6 were 3, 20 and 20 min, respectively, while the reactions of other CYP enzymes were terminated after 10 min. The reactions were quenched by adding 200 μL acetonitrile containing 3% formic acid and specific internal standards (Table 4). After shaking at 1000 rpm for 10 min, the reaction mixtures were centrifuged at 4000 rpm for 20 min. Supernatants were diluted with ultrapure water (Table 4) and shaken for 10 min at 1000 rpm. […] The substrates and analytes were analyzed by LC-MS/MS (API4000, Applied Biosystems, Singapore; HPLC, Shimadzu, Japan). […]
(§5) Data analysis. […] The IC50 was determined by fitting the dependence of the relative remaining activity (y = Vi/V0) to the following three-parameter equation (Equation (1)). […]
On the technique in general: Microsomes from liver hold many membrane-bound enzymes, among them those of drug oxidation.

The target in data set [2] is T2, CYP2C9 (Homo sapiens, UniProt P11712).
T2 construct: tissue Corning 452117; host or cells: human liver microsomes
T2 sequence (P11712 whole entry): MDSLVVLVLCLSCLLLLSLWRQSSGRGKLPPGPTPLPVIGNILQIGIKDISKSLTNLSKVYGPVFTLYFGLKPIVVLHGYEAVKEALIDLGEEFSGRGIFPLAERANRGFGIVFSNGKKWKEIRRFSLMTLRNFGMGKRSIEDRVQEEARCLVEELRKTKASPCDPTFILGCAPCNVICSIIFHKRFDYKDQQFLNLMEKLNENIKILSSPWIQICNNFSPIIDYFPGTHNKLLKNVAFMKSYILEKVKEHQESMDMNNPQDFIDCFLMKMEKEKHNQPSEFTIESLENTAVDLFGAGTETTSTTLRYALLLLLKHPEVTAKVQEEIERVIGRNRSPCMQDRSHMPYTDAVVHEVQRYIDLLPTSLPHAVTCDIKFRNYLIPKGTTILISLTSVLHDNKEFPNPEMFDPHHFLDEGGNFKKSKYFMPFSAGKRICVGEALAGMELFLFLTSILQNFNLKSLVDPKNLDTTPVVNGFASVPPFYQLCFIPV
Briefly: CYP450 inhibition assay in human liver microsomes, CYP2C9. It counts as in vitro ADME. The conditions noted are these: HLM 0.1 mg/mL; probe diclofenac 10 µM; 10 min. As for the experimental part: as §1, §2, §3, §4
The total volume of the reaction is 200 μL. […] The substrates and analytes were analyzed by LC-MS/MS (API4000, Applied Biosystems, Singapore; HPLC, Shimadzu, Japan). […]
as §5

pIC50: −log10 of the molar value. Where only a bound is given, the exact number is not on record here.

The text below walks through data of article PMC11173382, “In Vitro Investigations into the Potential Drug Interactions of Pseudoginsenoside DQ Mediated by Cytochrome P450 and Human Drug Transporters” (Molecules, 2024).

The pIC50 is the IC50 on a negative log10 scale, so that one unit is a factor of ten.

In the case of `CC(C)(O)[C@@H]1CC[C@@](C)([C@H]2CC[C@]3(C)[C@@H]2[C@H](O)C[C@@H]2[C@@]4(C)CC[C@H](O)C(C)(C)[C@@H]4CC[C@]23C)O1` [PDQ, (20S,24S)-dammar-20,24-epoxy-3β, 12β, 25-triol], the negative-log IC50 (pIC50) was less than 4.00 in data set [1] (HLM 0.1 mg/mL, probe phenacetin 75 µM, 10 min) and 4.93 in data set [2]. The “effect on CYP1A2-catalyzed de-ethylation” value in data set [1] (PDQ within the range of 0.03 to 30.0 μM, HLM) is “activated”. Further, the “percentage mean control activity of CYP1A2” value in data set [1] (highest tested dose of PDQ (100 μM), HLM) was 100.8%.
